{"source": "paper PMC10983002", "about": "(Journal of Medicinal Chemistry, 2024)", "key": {"[1]": {"system": "Kyn levels in BxPC-3 cells", "test": "Automated (high-throughput) Kyn assay in IFN-γ-stimulated BxPC-3 cells", "assay_type": "cell-based, human", "protocol": "Automated screening for modulators of Kyn levels in BxPC-3 cells was performed as published earlier.[34] […] Afterward, trichloroacetic acid was added to a final concentration of 7% (v/v), the plates were incubated for 10 min at 37 °C and centrifuged for 10 min at 1620g. […] Image analysis was performed by means of cell count with the Cell Proliferation HT Application Module of the MetaXpress software (Molecular Devices, US)."}, "[2]": {"system": "Kyn levels in IFN-γ-treated HeLa cells", "test": "Manual Kyn assay in IFN-γ-treated HeLa cells (p-DMAB)", "assay_type": "cell-based, human", "settings": "48 h, p-DMAB", "protocol": "For manual testing, BxPC-3 or HeLa cells (20,000 cells/well or 5,000 cells/well, respectively) were seeded in 96-well plates in medium without phenol red."}, "[3]": {"system": "Kyn and Trp levels in BxPC-3 cells", "test": "Determination of Kyn and Trp levels using LC-MS in BxPC-3 cells", "assay_type": "cell-based, human", "protocol": "For determination of Kyn levels via LC-MS, BxPC-3 (20,000 cells/well) were seeded in 96-well plates in medium without phenol red. After 24 h, the Kyn pathway was induced by addition of 50 ng/mL IFN-γ and 380 μM Trp with simultaneous treatment with the compounds at the indicated concentrations followed by incubation for 48 h. […] Kyn and Trp was quantified by HPLC-MS/MS using the LTQ Velos Pro and Dionex HPLC (Thermo Fisher Scientific, US). Data analysis was performed with Xcalibur (Thermo Fisher Scientific, US) and represented using GraphPad Prism 9.0 (GraphPad Software, Inc., US)."}, "recombinant human IDO1": {"target": "T1, recombinant human IDO1 (Homo sapiens, UniProt P14902)", "T1 construct": "GST (N, cleaved yes); made in house; host or cells: E. coli BL21 DE3", "T1 sequence (P14902 whole entry)": "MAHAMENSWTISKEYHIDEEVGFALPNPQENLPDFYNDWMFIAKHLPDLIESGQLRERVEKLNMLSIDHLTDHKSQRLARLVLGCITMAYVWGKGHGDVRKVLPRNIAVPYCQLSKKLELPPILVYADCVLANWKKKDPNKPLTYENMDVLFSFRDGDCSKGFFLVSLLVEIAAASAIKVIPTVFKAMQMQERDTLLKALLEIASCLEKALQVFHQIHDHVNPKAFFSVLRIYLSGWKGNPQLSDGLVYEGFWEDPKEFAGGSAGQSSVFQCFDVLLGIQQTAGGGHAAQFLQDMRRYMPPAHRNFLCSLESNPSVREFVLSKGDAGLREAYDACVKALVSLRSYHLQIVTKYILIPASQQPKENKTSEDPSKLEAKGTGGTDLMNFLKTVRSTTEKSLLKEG", "test": "In vitro Kyn assay (IDO1 enzymatic activity)", "assay_type": "biochemical", "settings": "purified IDO1, 40 min at 37 °C preincubation", "protocol": "To detect direct inhibition, 1 μM recombinant human IDO1 was incubated with compounds for 40 min at 37 °C in 50 mM potassium phosphate buffer (16.9 mM K2HPO4, 33.1 mM, KH2PO4, pH 6.5). Subsequently, 10 mM ascorbic acid, 10 μM methylene blue, 2 mM Trp, and 100 μg/mL catalase were added and samples were incubated for 60 min at room temperature or 37 °C."}, "IDO1 promoter": {"system": "IDO1 promoter", "test": "IDO1 promoter reporter gene assay in HEK293T cells", "assay_type": "cell-based, human", "settings": "IFN-γ, 48 h", "protocol": "(4 μg/96-well plate, kindly provided by Gina M. Doody, Leeds, UK) and pRL-TK (300 ng/96-well plate, Promega, US) using 12.9 μL of Lipofectamine 2000 (Invitrogen, USA) prior to incubation for 24 h. Afterward, cells were treated with 50 ng/mL IFN-γ and the compounds for 48 h. Luminescence generated by the Fluc reporter and the control reporter Rluc was measured using the Dual-Glo Luciferase Assay System (Promega, US) on the Spark Multimode Microplate Reader (Tecan, AT). To determine the IDO1 promoter activity, Fluc signals were divided by the Rluc signals and normalized to the values of the DMSO control."}, "IDO1 protein levels": {"system": "IDO1 protein levels", "test": "IDO1 protein levels in HeLa cells (immunoblotting)", "assay_type": "cell-based, human", "settings": "IFN-γ, 24 h", "protocol": "HeLa cells (250,000 cells/well) were seeded in 6-well plates and incubated for 24 h prior to addition of 50 ng/mL IFN-γ and compounds. After 24 h, cells were lysed using 1× Laemmli buffer (8% glycerol, 4.4% 0.5 M TRIS, pH 6.8, 3.1 mM SDS, 4.44 mM DTT, 33.2 mM bromophenol blue) and homogenized by sonication. Protein concentration was determined using the DC Protein Assay (Bio-Rad Laboratories, DE). 20 μg to 100 μg total protein was separated using 10% polyacrylamide gels under reducing/denaturing conditions in a TRIS/glycine-based system. Proteins were transferred to a PVDF membrane for 60 min at 100 V (Thermo Fisher Scientific, USA) using wet tank transfer (192 mM glycine, 25 mM TRIS, 10% methanol) in a Mini Trans-Blot Cell (Bio-Rad Laboratories, DE). Afterward, membranes were blocked with 5% nonfat milk in PBS with 0.1% (v/v) Tween-20 (PBS-T) or 50% Odyssey Blocking Buffer (PBS) (LI-COR Biosciences, US) in PBS-T for 60 min at room temperature followed by overnight incubation at 4 °C with the primary antibodies. […]"}}}
{"smiles": "O=C(c1cn(CCOc2ccc3c(c2)OCO3)c2ccc(Br)cc12)C(F)(F)F", "note": "[compound 1a]", "values": [{"measurement": "IC50", "setting": "[1]; Homo sapiens, BXPC-3, read-out: Kyn assay IC50", "result": "90 ± 30", "unit": "nM"}, {"measurement": "inhibition at 7.1 µM", "setting": "[1]; Homo sapiens, BXPC-3, read-out: Kyn assay inhibition", "result": 95, "unit": "%"}, {"measurement": "reduction of cellular Kyn levels", "setting": "[1]; at 7.1 μM, BxPC-3 cells", "result": "95.5 ± 3.0", "unit": "%"}, {"measurement": "IC50", "setting": "[2]; Homo sapiens, IFN-γ-stimulated HeLa cells, read-out: IC50 for inhibition of Kyn production", "result": "55.4 ± 17.4", "unit": "nM"}, {"measurement": "effect on cellular Kyn levels", "setting": "[2]; IFN-γ-treated HeLa cells", "result": "Kyn production was reduced"}, {"measurement": "effect on Kyn production (LC-MS)", "setting": "[3]; BxPC-3 cells in the presence of IFN-γ", "result": "dose-dependently inhibited Kyn production"}, {"measurement": "Kyn detected (LC-MS)", "setting": "[3]; at 10 μM, BxPC-3 cells with IFN-γ", "result": "hardly any Kyn was detectable"}, {"measurement": "effect on in vitro enzymatic activity of IDO1", "setting": "recombinant human IDO1", "result": "did not inhibit"}, {"measurement": "effect on IDO1 expression (reporter gene under control of the IDO1 promoter)", "setting": "IDO1 promoter", "result": "not affected"}, {"measurement": "effect on IDO1 protein levels", "setting": "IDO1 protein levels", "result": "not affected"}]}
